Columns and labels:
[1] = system: CD34 positive human haematopoietic stem cells; assay: Clonogenic growth in methylcellulose; format: cell-based; conditions: two different healthy donors
[2] = system: HOXA9 mRNA in MV4;11 cells; assay: qRT-PCR of HOXA9 levels; format: cell-based, human
THP-1 [3] = assay: Luminescent ATP-based cytotoxicity assay; format: cell-based, human; conditions: THP-1 (MLL/AF9)
SEMKH2 = assay: Luminescent ATP-based cytotoxicity assay; format: cell-based, human; conditions: SEMKH2 (MLL/AF9)
BRD2(1) = BRD2(1) (Homo sapiens, UniProt P25440); assay: Bio-Layer Interferometry; format: binding; conditions: read-out: affinity
Chain of BRD2(1) (P25440 71-194 limits assumed): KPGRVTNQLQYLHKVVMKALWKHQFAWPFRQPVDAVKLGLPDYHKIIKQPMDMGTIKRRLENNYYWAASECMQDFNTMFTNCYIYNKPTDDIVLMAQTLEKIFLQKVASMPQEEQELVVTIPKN

K562 = assay: Clonogenic growth in methylcellulose; format: cell-based, human
BRD2(2) = BRD2(2) (Homo sapiens, UniProt P25440); assay: ALPHA screen, acetylated histone 4 peptide displacement; format: binding; conditions: read-out: potency (IC50); displacement of H4K5acK8acK12acK16ac peptide
Chain of BRD2(2) (P25440 344-455 limits assumed): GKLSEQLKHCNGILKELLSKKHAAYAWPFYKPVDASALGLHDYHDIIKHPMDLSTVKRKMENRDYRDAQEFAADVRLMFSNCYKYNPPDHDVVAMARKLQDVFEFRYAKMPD

[4] = system: 40 human kinases and 14 human membrane receptors; assay: Screening against kinases and membrane receptors
CBP [5] = target: T1, CBP (Homo sapiens, UniProt Q92793); format: binding; conditions: read-out: affinity; Bio-Layer Interferometry, estimated
K-562 [6] = assay: Cell cycle analysis by flow cytometry; format: cell-based, human
[7] = system: murine MLL-AF9 leukaemic blasts; assay: Differentiation of leukaemic blasts; format: cell-based; conditions: into cells with polymorphonuclear neutrophil like appearances
KASUMI-1 = assay: Luminescent ATP-based cytotoxicity assay; format: cell-based, human; conditions: KASUMI-1 (AML1-ETO)
THP-1 [8] = assay: Clonogenic growth in methylcellulose; format: cell-based, human
MV4;11 cells [9] = system: MV4;11 cells
[10] = mouse; cited from earlier work
REH = assay: Luminescent ATP-based cytotoxicity assay; format: cell-based, human
38 protein kinases = assay: Screening against protein kinases; format: biochemical
MV4;11 cells [11] = system: MV4;11 cells; remark: listed apart in the source
MV4;11 [12] = assay: Cell cycle analysis by flow cytometry; format: cell-based, human
NALM-17 = assay: Luminescent ATP-based cytotoxicity assay; format: cell-based, human
K-562 [13] = assay: Luminescent ATP-based cytotoxicity assay; format: cell-based, human
K-562 cells [14] = assay: Western blot analysis of treated cells; format: cell-based, human
CBP [15] = target: T1, CBP; assay: ALPHA screen; format: binding
MV4;11 [16] = assay: Luminescent ATP-based cytotoxicity assay; format: cell-based, human; conditions: MV4;11 (MLL/AF4)
MV4;11 [17] = assay: Clonogenic growth in methylcellulose; format: cell-based, human
NOMO-1 = assay: Luminescent ATP-based cytotoxicity assay; format: cell-based, human; conditions: NOMO-1 (MLL/AF9)
[18] = system: BRD4 binding to the HOXA9 promoter; assay: Chromatin immunoprecipitation; format: cell-based, human; conditions: ChIP
RS4;11 = assay: Luminescent ATP-based cytotoxicity assay; format: cell-based, human; conditions: RS4;11 (MLL/AF4)
SUPB-15 = assay: Luminescent ATP-based cytotoxicity assay; format: cell-based, human
Aurora-C = conditions: ref [34]–[37]; cited from earlier work
Aurora-A = conditions: ref [34]–[37]; cited from earlier work
K-562 cells [19] = assay: Cytotoxicity of BET inhibitor and VX-680 combinations; format: cell-based, human; conditions: data not shown
Aurora-B = conditions: ref [34]–[37]; cited from earlier work

Compound: COc1ccccc1S(=O)(=O)Nc1ccc2c(c1)CN(C)C(=O)N2 [PFI-1]
- clonogenic growth [1]: significantly impaired
- HOXA9 mRNA ([2]; after 4 h): up-regulated
- HOXA9 mRNA ([2]; incubation times of 8 h and 24 h): strongly down-regulated
- GI50 (THP-1 [3]): 4 ± 2 µM
- GI50 (SEMKH2): 2 ± 2 µM
- Kd (BRD2(1)): 0.111 µM
- cell numbers in clonogenic growth assay (K562): significantly reduce cell numbers
- colony formation (K562): not affected
- IC50 (BRD2(2)): 0.098 µM
- activity [4]: no significant activity
- Kd (CBP [5]): ~11 µM
- cell cycle (K-562 [6]): not affected
- differentiation [7]: rapid differentiation
- GI50 (KASUMI-1): 0.8 ± 1 µM
- clonogenic growth (THP-1 [8]): strong ablation of clonogenic growth
- toxicity in combination with VX-680 (MV4;11 cells [9]): strong cancer cell toxicity
- necessary effective dose in vivo [10]: cannot be obtained in vivo
- GI50 (REH): 9 ± 4 µM
- inhibitory activity (38 protein kinases): no significant inhibitory activity
- c-Myc protein levels (MV4;11 cells [11]): significantly lower
- Aurora B protein levels (MV4;11 cells [11]; 8 h exposure): significant reduction
- PARP1 and pro-caspase 7 cleavage (MV4;11 cells [11]; 24 h exposure): strong induction
- protein levels and phosphorylation state of BAD (MV4;11 cells [11]; 24 h exposure): unaffected
- cell cycle (MV4;11 [12]): G1/S arrest
- GI50 (NALM-17): 8 ± 4 µM
- activity (growth inhibition) (K-562 [13]): No significant activity
- PARP1 and pro-caspase 7 cleavage (K-562 cells [14]): neither PARP1 nor pro-caspase 7 cleavage was observed
- c-Myc levels (K-562 cells [14]): only a minor reduction
- IC50 (CBP [15]): too weak for determination of an accurate IC50 value
- GI50 (MV4;11 [16]): 1.5 ± 1 µM
- clonogenic growth (MV4;11 [17]): strong ablation of clonogenic growth
- GI50 (NOMO-1): 3 ± 3 µM
- BRD4 occupancy of the HOXA9 promoter region [18]: displace BRD4 from the HOXA9 promoter region
- GI50 (RS4;11): 2 ± 2 µM
- GI50 (SUPB-15): 11 ± 4 µM

Compound: Cc1cc(Nc2cc(N3CCN(C)CC3)nc(Sc3ccc(NC(=O)C4CC4)cc3)n2)[nH]n1 [VX-680]
- potency (Aurora-C): 0.0046 µM
- synergy with BET inhibitors (K-562 cells [19]): No synergy
- potency (Aurora-B): 0.018 µM
